We go through four compounds from the NIST ThermoML archive (doi:10.1016/j.jct.2012.04.017).

For the data set the following is noted: 101.33 kPa, Liquid, Vibrating tube method.

± gives the expanded uncertainty stated by the source.

As a reminder, the mass density is the mass of a sample divided by its volume. As to `CCCCCCCCCCn1cc[n+](C)c1.N#C[B-](C#N)(C#N)C#N` [1-decyl-3-methyl-1H-imidazolium tetracyanoborate], the mass density (298.15 K) worked out at 955.57 ± 0.12 kg/m3.

Take `CCCCCCn1cc[n+](C)c1.N#C[B-](C#N)(C#N)C#N` [1-hexyl-3-methylimidazolium tetracyanoborate]: the mass density (298.15 K) was found to be 983.03 ± 0.24 kg/m3.

In the case of `CCCCO` [butan-1-ol], the mass density (298.15 K) is 798.06 ± 0.15 kg/m3.

For the compound `CCCCCCCCCCCCCC[P+](CCCCCC)(CCCCCC)CCCCCC.N#C[B-](C#N)(C#N)C#N` [trihexyltetradecylphosphonium tetracyanoborate], the mass density stood at 891.05 ± 0.23 kg/m3 (298.15 K); 884.97 ± 0.23 kg/m3 (308.15 K); 879.06 ± 0.23 kg/m3 (318.15 K); 873.16 ± 0.23 kg/m3 (328.15 K); 867.25 ± 0.24 kg/m3 (338.15 K); 861.36 ± 0.24 kg/m3 (348.15 K).
